The values that follow come from patent US10745393B2, “Small molecular probes, processes and use thereof” (JAWAHARLAL NEHRU CENTRE FOR ADVANCED SCIENTIFIC RESEARCH, priority 2014, dated 2020).

Molecules are shown by their SMILES. “And” between values parts separate entries of the source, which are not always exact repeats. Equal values may be shown once. “Also recorded” adds a separate entry of the source.

The subject of one data set is (D2)mix. Description: Thermal denaturation (UV-melting) of dsDNA with probe TC. Type of data set: binding.
For data set [1], the target named is Aβ42 fibrillar aggregates (Homo sapiens, UniProt P05067). Description: pH-dependent colorimetric and fluorometric response. Type of data set: binding. The settings on record: TC 10 μM, PBS buffer.
Chain of Aβ42 fibrillar aggregates (P05067 672-713 limits assumed): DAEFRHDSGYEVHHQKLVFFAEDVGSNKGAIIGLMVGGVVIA
Another data set deals with HEK293 cells. The data set can be described thus: MTT cytotoxicity assay. Type of data set: cell-based. Here is the method:
10,000 HEK293 cells are seeded in 96-well plate and cultured for about 12 hours. […] Water is used as a control. About 20 μL of MTT (about 5 mg/mL) is added in each well, incubated for about 3 hours at about 37° C. and about 100 μL of DMSO is added. Readings are taken at about 570 nm in ELISA reader (VERSA Max microplate reader, Molecular Devices). The data is normalized with control and plotted with mean and standard error.

Data set [2] relates to (D1)mix. Description: Fluorescence response / quantum yield of probes with dsDNA (D1)mix. The data set is classed as binding.
Data set [3] relates to (AT)20. The data set can be described thus: Fluorescence response / quantum yield of probes with dsDNA (AT)20. Type of data set: binding.
In another data set the test system is Plasmodium falciparum. Description: Live cell fluorescence imaging of malaria parasites in erythrocytes. The note with it: (FIG. 38 legend 1 and 2 μM), 30 minutes. The data set is classed as cell-based, P. falciparum 3D7 strain.
The test system of data set [4] is (AT)20. Description: Agarose gel electrophoresis staining of dsDNA band. The data set is classed as binding. The settings on record: 3% agarose gel, about 0.6 μg dsDNA, UV-illumination.
In data set [5] the test system is (D1)mix. Description: Thermal denaturation (UV-melting) of dsDNA with probe TC. Type of data set: binding.
In data set [6] the target is α-Synuclein (α-Syn) aggregates (Homo sapiens, UniProt P37840). Description: Selectivity: fluorescence with α-synuclein aggregates. The note with it: α-Syn aggregates 20 μM. The data set is classed as binding.
Where [7] appears, read: Tris-HCl buffer (100 mM, pH 7.4).
Where [8] appears, read: increasing concentrations of TC (1 μM to 20 μM), FIG. 10.

Regarding `CCN(CC)c1ccc2cc(/C=C/c3sc4ccccc4[n+]3C)c(=O)oc2c1` [TC, (E)-3-(2-(N-methyl-benzo[d]thiazol-2-yl)vinyl)-7-(diethylamino)-2H-chromen-2-one], the entries for the “Tm(DNA + TC)” value in the data set with (D2)mix and with (D1)mix [5] were 73.5 °C and 61.6 °C, respectively. For the same compound, the ΔTm in the data set with (D2)mix (TC bound vs unbound) worked out at 1.6 °C. Also, the “pH range in which colorimetric and emission properties with Aβ42 aggregates are unaffected / usable” value in data set [1] is 3 to 8 and 2-8. Moreover, the “cytotoxicity, dose dependent MTT” value with HEK293 cells (HEK293 cells, 2.5, 5 and 7.5 μM, about 30 minutes) is listed as “non-toxic”. For the same compound, in the data set with HEK293 cells (HEK293 cells, about 5 μM TC, about 24 hours), the viable cells result is recorded as “about 64%”. The “fluorescence enhancement in presence of (D1)mix” value in the data set on (D1)mix [2] (TC 10 μM, DNA 0 to 12 μM) is roughly 6 fold; with (D1)mix [2] (setting [8]) it was roughly 6 fold. In addition, in the data set on (D1)mix [2] (setting [7]), the “ΦF with (D1)mix” value came to 0.11. Further, the “fluorescence enhancement in presence of (AT)20” value in the data set with (AT)20 [3] (TC 10 μM, DNA 0 to 12 μM) is listed as roughly 16 fold; in the data set with (AT)20 [3] (setting [8]), roughly 16 fold. For the same compound, the “ΦF with (AT)20” value in the data set on (AT)20 [3] (setting [7]) is 0.36. Also, in the data set with (AT)20 [3] (dye 10 μM, Tris-HCl buffer), the “comparative fluorescence response in presence of (AT)20” value was “excellent fluorescence marker”. Moreover, the “probe concentration at which fluorescence reaches saturation” value in the data set with (AT)20 [3] (fixed dsDNA 12 μM) fell in the range of 18 to 22 µM. Besides, the “staining of trophozoite stage parasites in red blood cells” value in the data set on Plasmodium falciparum is “specifically binds to the parasite cells within the red blood cells; also recorded: accumulated specifically in the nucleus of the parasitized red blood cell”. Further, in the data set on (AT)20 [4], the “gel staining of (AT)20 band” value is given as “strong fluorescence intensity”. The “fluorescence enhancement with α-Syn aggregates” value in data set [6] was “does not lead to significant fluorescence enhancements”.
